Source: patent US6632960B2, “Diaryliodonium salt catalysts made from iodotoluene and a method for preparing them” (Goldschmidt AG, priority 2002, dated 2003)

What was measured:
[1] = Solution stability of catalyst solutions on storage at 25° C.; format: physicochemical; settings: Comparison 3: 40 parts catalyst in 60 parts ERL 4221E; listed as iodotoluene catalyst
[2] = Iodonium catalyst solubility studies: time to dissolve to a clear solution at 70° C.; settings: Comparison 2: 3 parts by weight catalyst in 100 parts PC-1000 (epoxy siloxane monomer); 2.9 wt. % solution

Solution Stability (after 14 days @ 25° C.) [1]: remained stable and clear
Time @ 70° C. (for clear solution) [2]: half and ½ hr.
SMILES: CCCCCCCCCCCCC(O)COc1ccc([I+]c2ccc(C)cc2)cc1 (centres unmarked) [PCX-2519, [4-(2-hydroxy-1-tetradecyloxy)-phenyl] 4-methylphenyliodonium hexafluorophosphate]
